Experimental data as given in ChEMBL document CHEMBL3045919, “Disease-controlling effect of a novel fungicide pyribencarb against Botrytis cinerea” (J Pestic Sci, 2010).
≈ marks a conversion by molar mass, not a printed value. Calls of active or inactive are those of the source. The calls are words filed in the database; no cut-off is given here.

How the values were obtained:
Botrytis cinerea [1] = test: Antifungal activity against Botryotinia fuckeliana in Cucumber seedlings assessed as reduction of gray mold diseases compound spraying was performed 3 hr prior to inoculation by preventive effect assay; assay type: functional, organism-based
Botrytis cinerea [2] = test: Antifungal activity against Botryotinia fuckeliana in Eggplant seedlings assessed as Eggplant gray mold diseased flowers and fruits in field trials at 200 ug/ml 3 applications at 7 days intervals (reference value: 52.7%); assay type: functional
Cucumis sativus = test: Translaminar activity against kidney bean gray mold assessed as drug transport in Phaseolus vulgaris (kidney bean) from adaxial to abaxial at 100 to 200 ug/ml measured after 3 days; assay type: ADME, organism-based; conditions: in vivo, 72 h
Botrytis cinerea [3] = test: Antifungal activity against Botryotinia fuckeliana in Eggplant seedlings assessed as Eggplant gray mold diseased flowers and fruits in field trials at 100 ug/ml 3 applications at 7 days intervals (reference value: 52.7%); assay type: functional
Botrytis cinerea [4] = test: Antifungal activity against Botryotinia fuckeliana in Cucumber seedlings assessed as reduction of gray mold diseases at 3 ug/ml compound spraying was performed 48 hr after inoculation by lesion development inhibitory assay; assay type: functional; parameters: scale not given: the % may be the effect or the level left
Botrytis cinerea [5] = test: Antifungal activity against Botryotinia fuckeliana in Kidney bean assessed as Kidney bean gray mold diseased pods in field trials at 100 ug/ml 3 applications at 9 days intervals (reference value: 21%); assay type: functional
Botrytis cinerea [6] = test: Antifungal activity against Botryotinia fuckeliana in Cucumber seedlings assessed as reduction of gray mold diseases; assay type: functional, organism-based
Botrytis cinerea [7] = test: Antifungal activity against Botryotinia fuckeliana in Cucumber seedlings assessed as reduction of gray mold diseases at 3 ug/ml compound spraying was performed 24 hr after inoculation by curative effect assay; assay type: functional; parameters: scale not given: the % may be the effect or the level left
Botrytis cinerea [8] = test: Antifungal activity against Botryotinia fuckeliana in Cucumber seedlings assessed as reduction gray mold diseases at 3 ug/ml compound spraying was performed 3 hr prior to inoculation by preventive effect assay; assay type: functional; parameters: scale not given: the % may be the effect or the level left
Botrytis cinerea [9] = test: Antifungal activity against Botryotinia fuckeliana in Cucumber seedlings cotyledon stage assessed as suppression of gray mold diseases measured after 7 days by rain fastness activity assay; assay type: functional, organism-based
Botrytis cinerea [10] = test: Antifungal activity against Botryotinia fuckeliana in Kidney bean assessed as Kidney bean gray mold diseased pods in field trials at 200 ug/ml 3 applications at 9 days intervals (reference value: 21%); assay type: functional
Botrytis cinerea [11] = test: Antifungal activity against Botryotinia fuckeliana in Kidney bean assessed as Kidney bean gray mold diseased pods in field trials at 500 ug/ml 3 applications at 9 days intervals (reference value: 21%); assay type: functional
Botrytis cinerea [12] = test: Antifungal activity against Botryotinia fuckeliana in Eggplant seedlings assessed as Eggplant gray mold diseased flowers and fruits in field trials at 500 ug/ml 3 applications at 7 days intervals (reference value: 52.7%); assay type: functional

O=C(Nc1ccccc1-c1ccc(Cl)cc1)c1cccnc1Cl [BOSCALID] showed an EC50 (Botrytis cinerea [1]) of 0.8 µg/mL (≈ 2.33 µM).
Molecule N#Cc1c[nH]cc1-c1cccc2c1OC(F)(F)O2 [FLUDIOXONIL] has an Activity (Botrytis cinerea [2]) of 16.8%.
In the case of CC1(C(=O)Nc2ccc(O)c(Cl)c2Cl)CCCCC1 [FENHEXAMID], the EC50 (Botrytis cinerea [1]) is reported as 2.13 µg/mL (≈ 7.05 µM).
In the case of COC(=O)NCc1cc(/C(C)=N/OCc2cccc(C)n2)ccc1Cl [Pyribencarb], the Activity (Botrytis cinerea [2]) is reported as 3.4%, the Drug transport (Cucumis sativus) is reported as “Active” and the Activity (Botrytis cinerea [3]) is reported as 9.8%. The Activity (Botrytis cinerea [4]) was 88.5%, the Activity (Botrytis cinerea [5]) was 5.3% and the EC50 (Botrytis cinerea [6]) was 0.006 µg/mL (≈ 0.0166 µM). It also gave an MIC (Botrytis cinerea [6]) of 0.1 µg/mL (≈ 0.276 µM), an Activity (Botrytis cinerea [7]) of 80.4% and an Activity (Botrytis cinerea [8]) of 72.1%. For the same molecule, the inhibition (Botrytis cinerea [9]) was “Active”, the Activity (Botrytis cinerea [10]) was 3.7% and the EC50 (Botrytis cinerea [1]) was 0.55 µg/mL (≈ 1.52 µM).
Work on O=[N+]([O-])c1cc(C(F)(F)F)c(Cl)c([N+](=O)[O-])c1Nc1ncc(C(F)(F)F)cc1Cl [FLUAZINAM] yielded an Activity (Botrytis cinerea [11]) of 7.8%.
CC12CC1(C)C(=O)N(c1cc(Cl)cc(Cl)c1)C2=O (stereo not drawn) [PROCYMIDONE] gave an Activity (Botrytis cinerea [11]) of 4.6% and an Activity (Botrytis cinerea [12]) of 12.3%.
